Measurements from patent US4731473A, “Compounds useful in treating sickle cell anemia” (Merck & Co., Inc., priority 1986, dated 1988).
Where a name gives a salt, the structure may show the parent alone.

What was measured:
sickle hemoglobin (HbS) = sickle hemoglobin (HbS) (Homo sapiens, UniProt P68871+P69905, E7V); test: solubility or Csat assay: solubility of deoxygenated sickle hemoglobin (Hofrichter et al.); type: biochemical; conditions: low concentrations (5 mM); versus dichlorobenzyloxyacetic acid and p-bromobenzyloxyacetic acid
Text: One major assay for evaluating antisickling agents involves measuring their effect on increasing the concentration at which sickle hemoglobin forms a gel. This is called the solubility or Csat assay.
The solubility assay (Csat assay) measures the ability of a compound to increase solubility of sickle hemoglobin (HbS). […] The higher the ratio, the higher the activity of the compound.
In order to confirm the effectiveness of these compounds in reducing the effect of sickle cell anemia, tests were performed. The materials were tested according to the assay (Csat) developed by Hofrichter et al. (J. Hofrichter, P. D. Ross and W. A. Eaton, Proc. Natl. Acad. Sci., U.S.A. 73, 30-35, 1976). This assay involves deoxygenation of concentrated sickle hemoglobin with dithionite in the presence of different concentrations of the drugs being tested. Samples are then sealed in quartz epr tubes under anaerobic conditions and spun at about 150,000 g for about 21/2 hours at about 35° C. in an ultracentrifuge. This procedure pellets the polymerized HbS (sickle hemoglobin) to the bottom of the tubes and the supernatant (soluble HbS) is measured in the laboratory as the cyanmethemoglobulin derivative. […] Activity is reported as a ratio of the HbS solubility with the particular drug to HbS solubility with no drug, i.e. control. The higher the ratio the greater degree of activity of the drug. […]

erythrocyte membranes = test: Tests of transport across erythrocyte membranes; type: cell-based
HbS = test: Chromatographic separation: covalent binding to HbS

C=C(CC)C(=O)c1ccc(OCCCC(=O)O)c(Cl)c1Cl [sodium salt of 4-[2,3-dichloro-4-(2-methylenebutyryl)phenoxy]butyric acid]
solubility ratio compared with other antisickling agents (in words) (sickle hemoglobin (HbS)): exhibited a higher solubility ratio than other antisickling agents
ability to cross the red blood cell membrane and react with hemoglobin (in words) (erythrocyte membranes): confirmed the ability of the agent to cross the red blood cell membrane and react with hemoglobin
covalent binding between HbS and the agent (in words) (HbS): desired tight covalent binding between the HbS and the therapeutic agent had occurred
